Several values for one entry are separate records, joined by “and”; a condition that tells them apart may be missing. Equal values may be shown once. Read-outs that look alike come from different tables or passages of the source.
Tests used:
CT26 cells [1] = assay: Cell cycle distribution by flow cytometry (propidium iodide), CT26; type: cell-based, mouse; settings: for SubG1 (%) / G2/M (%) / S (%) / G0/G1 (%): CT26, 10 μg/mL, 24 h; for SubG1 (%): control 3.6 ± 0.6; for G2/M (%): control 12.3 ± 0.9; for S (%): control 40.1 ± 1.5; for G0/G1 (%): control 44.0 ± 1.7; for cytostatic effect (cell cycle), CT26: CT26 cell line
Description: One of the indicators of the influence of biologically active products on the cells is the changed distribution of cells during different stages of the cell cycle. In this work, recently synthesized compounds were tested using flow cytometry for their effect on the distribution of cells in the cell cycle (G0/G1, G2/M, and S). Figure 8, Figure 9 and Figure 10 and Table 3 show the typical data after processing the results from three replicates of each experiment.
The distribution of HeLa and CT26 cells in the G0/G1-, S-, and G2/M-phases of the cell cycle was obtained by quantification of DNA content in propidium-iodide-stained cells using flow cytometry. Briefly, cells were seeded in 24-well plates at a density of 5 × 10^4 cells per well. After 24 h incubation, cells were exposed to 10 μg/mL of compounds 4c–i (the structure is provided in Scheme 1) for 24 h. The effects of compounds 4d, 4e, 4g, 4h were additionally tested at concentrations of 2 and 5 μg/mL. After incubation with drugs, the cells were detached by exposure to trypsin-EDTA for 5 min at 37 °C and then collected by pipetting. This was followed by treatment with 0.2 mg/mL saponin (Fluka, Waltham, MA, USA), 0.25 mg/mL RNase (Sigma-Aldrich, St. Louis, MO, USA), and 0.05 mg/mL propidium iodide (Invitrogen, Carlsbad, CA, USA). After washing, the samples were analyzed by standard flow cytometer (BD FACSCanto II, Becton Dickinson, San Jose, CA, USA). Then, 10,000 events were acquired for the sample. Data processing was performed using BD FACSDiva 9.0 software.

[2] = tested on: human T lymphocyte (Jurkat) cell line; assay: MTS antiproliferative (cytotoxicity) assay, Jurkat; type: cell-based; settings: for IC50: Homo sapiens, MTS; for SI (selectivity index), Jurkat: Vero as reference cell line
Description: The cytotoxicity of synthesized 3-azaspiro[bicyclo[3.1.0]hexane-2,5′-pyrimidines] 4 against human erythroleukemia (K562), cervical carcinoma (HeLa), and T lymphocyte (Jurkat), as well as mouse colon carcinoma (CT26) and African green monkey kidney epithelial (Vero) cell lines as reference, was evaluated in vitro by the standard MTS assay for 24 and 72 h. The results are presented in Figure 1, Figure 2, Figure 3, Figure 4 and Figure 5 (data on all, tested on K562, HeLa, and CT26 cell lines’ compounds, are given at SI, Figures S1–S3). […] Replacement of the phenyl group by either the carboxymethyl or N-isopropylcarbamoyl group has led to a significant decrease in the activity of spiro-fused cycloadducts comprising azabicyclo[3.1.0]hexane and alloxane moieties.
(§1) All the cell lines (human cervical carcinoma (HeLa), erythroleukemia (K-562), and T lymphocyte (Jurkat) as well as mouse colon carcinoma (CT26) and African green monkey kidney epithelial (Vero)) were obtained from the cell repository “Vertebrate cell culture collection” (supported by the Ministry of Science and Higher Education of the Russian Federation, agreement №075-15-2021-683, Institute of Cytology, Russian Academy of Sciences, Saint Petersburg, Russia). HeLa, Jurkat, and Vero cells were cultured in DMEM (HyClone, South Logan, UT, USA) supplemented with 10% (v/v) fetal bovine serum (Hyclone, GE Healthcare Life Sciences, Logan, UT, USA), and gentamicin (Sigma-Aldrich, St. Louis, MO, USA) at 37 °C in a humidified atmosphere with 5% CO2. K-562 and CT26 cells were grown at RPMI medium (Hyclone, GE Healthcare Life Sciences, Logan, UT, USA), with the same supplements and conditions.
(§2) To evaluate the in vitro toxicity of compounds synthesized, cells were seeded into 96-well plates at a density of 5 × 10^3 cells per well. On the next day, tested compounds were added to the wells at concentrations ranging from […], followed by incubation for 1 and 3 days. Cell proliferation was determined by adding 20 μL of MTS reagent (BioVision, Milpitas, CA, USA) stock solution per well. Each plate was incubated for 2 h at 37 °C in a humidified, 5% CO2 atmosphere. The plates were then read at 495 nm using plate spectrophotometer (Multiskan GO, Thermo Fisher Scientific, Waltham, MA, USA). All samples were measured in triplicates.

[3] = tested on: human cervical carcinoma (HeLa) cell line; assay: MTS antiproliferative (cytotoxicity) assay, HeLa; type: cell-based; settings: HeLa; for SI (selectivity index), HeLa: Vero as reference cell line; for IC50: Homo sapiens
Description: (§3) The cytotoxicity of synthesized 3-azaspiro[bicyclo[3.1.0]hexane-2,5′-pyrimidines] 4 against human erythroleukemia (K562), cervical carcinoma (HeLa), and T lymphocyte (Jurkat), as well as mouse colon carcinoma (CT26) and African green monkey kidney epithelial (Vero) cell lines as reference, was evaluated in vitro by the standard MTS assay for 24 and 72 h.
as §1, §2

[4] = tested on: human erythroleukemia (K562) cell line; assay: MTS antiproliferative (cytotoxicity) assay, K562; type: cell-based; settings: for IC50: Homo sapiens; for SI (selectivity index), K562: Vero as reference cell line
Description: as §3, §1, §2

CT26 cells [5] = assay: Annexin V-FITC/DAPI cell death analysis, CT26; type: cell-based, mouse; settings: CT26, 10 μg/mL, 72 h; for Necrotic Cells, %: control 0.0 ± 0.0; for Late Apoptotic Cells, %: control 0.9 ± 0.4; for Early Apoptotic Cells, %: control 10.5 ± 0.7; for Live Cells, %: control 88.5 ± 1.1
Description: The results of cell death detection after the exposure of the HeLa and CT26 cell lines to spiro-fused cycloadducts 4c–i at a dose of 10 μg/mL for 72 h, using Annexin V-FITC/DAPI staining, are shown in Figure 6 and Figure 7, respectively.
Cells were seeded in 24-well plates, 5 × 10^4 cells per well. After 24 h incubation, cells were treated with compounds 4c–i for 72 h. Then, cells were washed, harvested by trypsinisation, stained with Annexin V-FITC ([…]) and DAPI (Thermo Fisher Scientific, Waltham, MA, USA), in accordance with the protocol of the manufacturer, and analyzed by flow cytometry. The proapoptotic effect of azaspiro[bicyclo[3.1.0]hexane-2,5′-pyrimidines] 4c–i was evaluated by an Annexin V-FITC/DAPI (AV/DAPI) dual-staining assay to examine the occurrence of phosphatidylserine externalization, which facilitated the detection of live cells (lower-left quadrant; AV−/DAPI−), early apoptotic cells (upper-left quadrant; AV+/DAPI−), late apoptotic cells (upper-right quadrant; AV+/DAPI+), and necrotic cells (lower-right quadrant; AV−/DAPI+).

[6] = tested on: African green monkey kidney epithelial (Vero) cell line; assay: MTS antiproliferative (cytotoxicity) assay, Vero (reference); type: cell-based; settings: Chlorocebus sabaeus, Vero
Description: as §3, §1, §2

[7] = tested on: mouse colon carcinoma (CT26) cell line; assay: MTS antiproliferative (cytotoxicity) assay, CT26; type: cell-based; settings: for SI (selectivity index), CT26: Vero as reference cell line; for IC50: Mus musculus
Description: as §3, §1, §2

[8] = 24 h, read-out: IC50, Jurkat, 24 h
[9] = 72 h, read-out: IC50, Jurkat, 72 h
[10] = 24 h, read-out: IC50, HeLa, 24 h
[11] = 72 h, read-out: IC50, HeLa, 72 h
[12] = K562, 24 h, read-out: IC50, K562, 24 h
[13] = K562, 72 h, read-out: IC50, K562, 72 h
[14] = 24 h, read-out: IC50, Vero, 24 h
[15] = 72 h, read-out: IC50, Vero, 72 h
[16] = CT26, 24 h, read-out: IC50, CT26, 24 h
[17] = CT26, 72 h, read-out: IC50, CT26, 72 h

Row | SMILES | SubG1 (%) (CT26 cells [1]) | G2/M (%) (CT26 cells [1]) | S (%) (CT26 cells [1]) | G0/G1 (%) (CT26 cells [1]) | IC50 [2, 8] [µM] | IC50 [2, 9] [µM] | SI (selectivity index), Jurkat [2] | SI (selectivity index), HeLa [3] | IC50 [3, 10] [µM] | IC50 [3, 11] [µM] | IC50 [4, 12] [µM] | IC50 [4, 13] [µM] | SI (selectivity index), K562 [4] | Necrotic Cells, % (CT26 cells [5]) [%] | Late Apoptotic Cells, % (CT26 cells [5]) [%] | Early Apoptotic Cells, % (CT26 cells [5]) [%] | Live Cells, % (CT26 cells [5]) | IC50 [6, 14] [µM] | IC50 [6, 15] [µM] | SI (selectivity index), CT26 [7] | other results
1 | CC[C@@H]1NC2(C(=O)NC(=O)NC2=O)[C@]2(c3ccccc3)[C@@H](c3ccccc3)[C@]12c1ccccc1 [Compound 4c] | 2.0 ± 0.4 | 13.2 ± 2.9 | 16.3 ± 1.7 | 68.5 ± 3.0 | 149 ± 33 | 15 ± 2 | 1.1 | 1.3 | 21 ± 2 | 13 ± 2 | 12 ± 2 | 5 ± 2 | 3.2 | 1.8 ± 0.8 | 6.4 ± 1.0 | 1.9 ± 0.3 | 89.8 ± 0.5% | 47 ± 11 | 16 ± 2 | 0.8 | IC50 [7, 16]: 27 ± 2 µM; IC50 [7, 17]: 20 ± 2 µM
2 | CCC[C@@H]1NC2(C(=O)NC(=O)NC2=O)[C@]2(c3ccccc3)[C@@H](c3ccccc3)[C@]12c1ccccc1 [Compound 4d] | 12.2 ± 1.1 | 17.9 ± 0.6 | 34.4 ± 2.3 | 35.6 ± 1.0 | 15 ± 2 | 13 ± 2 | 1.3 | 1.1 | 17 ± 2 | 15 ± 2 | 21 ± 4 | 9 ± 2 | 1.8 | 1.1 ± 0.3 | 56.4 ± 2.4 | 9.6 ± 0.5 | 32.8 ± 3.0 % | 48 ± 4 | 16 ± 2 | 1.3 | cytostatic effect (cell cycle), CT26 (CT26 cells [1]): best effect; IC50 [7, 16]: 17 ± 2 µM; IC50 [7, 17]: 13 ± 2 µM
3 | CCCC[C@@H]1NC2(C(=O)NC(=O)NC2=O)[C@]2(c3ccccc3)[C@@H](c3ccccc3)[C@]12c1ccccc1 [Compound 4e] | 19.3 ± 5.1 | 14.1 ± 9.4 | 28.5 ± 1.8 | 38.1 ± 6.4 | 12 ± 2 | 9 ± 2 | 1.2 | 0.8 | 13 ± 2 | 13 ± 4 | 17 ± 2 | 4 ± 2 | 2.5 | 1.4 ± 0.1 | 61.6 ± 0.5 | 23.4 ± 0.8 | 13.5% and 13.5 ± 0.4 % | 23 ± 2 | 10 ± 2 | 1.7 | cytostatic effect (cell cycle), CT26 (CT26 cells [1]): best effect; IC50 [7, 16]: 10 ± 2 µM; IC50 [7, 17]: 6 ± 2 µM
4 | CC(C)C[C@@H]1NC2(C(=O)NC(=O)NC2=O)[C@]2(c3ccccc3)[C@@H](c3ccccc3)[C@]12c1ccccc1 [Compound 4f] | 24.9 ± 5.2 | 13.5 ± 0.9 | 31.9 ± 2.6 | 29.7 ± 1.4 | 11 ± 2 | 9 ± 2 | 1.2 | 0.5 | 19 ± 2 | 23 ± 6 | 17 ± 4 | 6 ± 2 | 1.7 | 1.9 ± 0.5 | 57.8 ± 3.1 | 6.2 ± 1.2 | 34.1 ± 3.8 % | 48 ± 6 | 10 ± 2 | 1.0 | cytostatic effect (cell cycle), CT26 (CT26 cells [1]): best effect; IC50 [7, 16]: 17 ± 2 µM; IC50 [7, 17]: 10 ± 2 µM

Source: article PMC9506420, “Biological Evaluation of 3-Azaspiro[Bicyclo[3.1.0]Hexane-2,5′-Pyrimidines] as Potential Antitumor Agents” (International Journal of Molecular Sciences, 2022)
